Consider 31 compounds from patent publication US7781430B2, “Benzoxazole carboxamides for treating CINV and IBS-D” (Albany Molecular Research, Inc., priority 2005, dated 2010).

The first data set deals with T1, 5-HT3 receptors (Mus musculus, UniProt P23979).
T1 construct: a group of 5 male or female CD-1 (Crl.) mice; from tissue
T1 sequence (P23979 24-489): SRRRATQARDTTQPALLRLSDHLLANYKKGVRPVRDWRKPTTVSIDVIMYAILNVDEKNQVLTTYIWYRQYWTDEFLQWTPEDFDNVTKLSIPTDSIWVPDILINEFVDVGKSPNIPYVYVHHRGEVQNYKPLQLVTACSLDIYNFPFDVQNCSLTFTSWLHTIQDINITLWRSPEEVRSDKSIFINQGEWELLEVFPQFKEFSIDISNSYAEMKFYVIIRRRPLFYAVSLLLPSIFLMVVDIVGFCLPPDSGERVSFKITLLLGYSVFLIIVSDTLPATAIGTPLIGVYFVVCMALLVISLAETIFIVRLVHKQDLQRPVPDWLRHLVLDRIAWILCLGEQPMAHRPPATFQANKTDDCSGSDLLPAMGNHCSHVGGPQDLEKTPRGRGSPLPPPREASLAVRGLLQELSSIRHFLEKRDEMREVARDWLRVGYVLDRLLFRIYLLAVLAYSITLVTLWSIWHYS
Put plainly: Bezold-Jarisch assay in vivo (inhibition of serotonin induced bradycardia). The settings on record: 30 mg/kg orally, CD-1 mice; 5-HT (0.5 mg/kg IV)-induced bradycardia recorded sixty minutes later, pentobarbital-anesthetized. As for the experimental part:
Bezold-Jarisch Assay in vivo. […] Arch. Int. Pharmacodyn. 277: 235-252, 1985]. Test substances and vehicle [2% Tween 80] were each administered orally (30 mg/kg) to a group of 5 male or female CD-1 (Crl.) mice each weighing 24±2 g. A dosing volume of 10 mL/kg was used. Sixty minutes later, 5-HT (0.5 mg/kg IV)-induced bradycardia was recorded in pentobarbital (80 mg/kg IP, given 10 minutes before 5-HT)-anesthetized animals.
Regarding `CN1C2CCCC1CC(NC(=O)c1cc(Cl)cc3oc(-c4ccccc4)nc13)C2` (stereo not shown), the “% Inhibition in vivo” value came to 40%.
Still for that read-out and setting: the value for `COc1ccccc1-c1nc2c(C(=O)NC3CN4CCC3CC4)cccc2o1` (stereo not shown) was 88%.
Still for that read-out and setting: next, `O=C(NC1CN2CCC1CC2)c1cccc2oc(-c3ccsc3)nc12` (stereo not shown): 62%.

System in the next data set: not given
Assay: not given
Details: not given
With `Cc1nccn1CCCNC(=O)c1cccc2oc(-c3ccccc3)nc12`, the melting point fell in the range of 145 to 148 °C.
On the same count and under the same terms, next, `CN1CCC(NC(=O)c2cc(Cl)cc3oc(-c4ccccc4)nc23)CC1`: 170 to 172 °C; `O=C(NC1CCNCC1)c1cc(Cl)cc2oc(-c3ccccc3)nc12`: 169 to 171 °C.
Still for that read-out and setting: the value for `O=C(NC1CN2CCC1CC2)c1cc(Cl)cc2oc(-c3ccccc3)nc12` (stereo not shown) was 180 to 183 °C.
On the same count and under the same terms, the value for `O=C(NC1CN2CCC1CC2)c1cccc2oc(-c3ccc(Cl)cc3)nc12` (stereo not shown) was 194 to 196 °C; that for `CN1C2CCCC1CC(NC(=O)c1cccc3oc(-c4ccc(Cl)cc4)nc13)C2` (stereo not shown) was 185 to 187 °C; that for `COc1ccc(-c2nc3c(C(=O)NC4CN5CCC4CC5)cccc3o2)cc1` (stereo not shown) was 108 to 109 °C.
As for `COc1ccc(-c2nc3c(C(=O)NC4CC5CCCC(C4)N5C)cccc3o2)cc1` (stereo not shown), the melting point lay in the range of 103 to 105 °C.
The same measure, in the same setting: next, `CN1C2CCCC1CC(NC(=O)c1cccc3oc(-c4ccc(F)cc4)nc13)C2` (stereo not shown): 197 to 199 °C; `O=C(NC1CN2CCC1CC2)c1cccc2oc(-c3ccc(F)cc3)nc12` (stereo not shown): 208 to 209 °C.
The same measure, in the same setting: the value for `Cc1nccn1CCNC(=O)c1cccc2oc(-c3ccccc3)nc12` was 125 to 127 °C; that for `CN1CCC(NC(=O)c2cccc3nc(-c4ccccc4)oc23)CC1` was 209 to 210 °C.
Compound `O=C(NC1CCNCC1)c1cccc2nc(-c3ccccc3)oc12` showed a melting point of 191 to 193 °C.
Regarding `O=C(NC1CN2CCC1CC2)c1cccc2nc(-c3ccccc3)oc12` (stereo not shown), the melting point lay in the range of 179 to 180 °C.
The same measure, in the same setting: the value for `CN1C2CCC1CC(NC(=O)c1cccc3nc(-c4ccccc4)oc13)C2` (stereo not shown) was 164 to 166 °C.
The same measure, in the same setting: the value for `O=C(NC1CN2CCC1CC2)c1cc(Cl)cc2nc(-c3ccccc3)oc12` (stereo not shown) was 283 to 285 °C; that for `CN1C2CCCC1CC(NC(=O)c1cc(Cl)cc3nc(-c4ccccc4)oc13)C2` (stereo not shown) was 199 to 201 °C; that for `O=C(NC1CN2CCC1CC2)c1cccc2nc(-c3ccc(F)cc3)oc12` (stereo not shown) was 185 to 187 °C.
Still for that read-out and setting: the value for `CN1C2CCCC1CC(NC(=O)c1cccc3nc(-c4ccc(F)cc4)oc13)C2` (stereo not shown) was 229 to 231 °C; that for `COc1ccc(-c2nc3cccc(C(=O)NC4CN5CCC4CC5)c3o2)cc1` (stereo not shown) was 166 to 167 °C.
With `COc1ccc(-c2nc3cccc(C(=O)NC4CC5CCCC(C4)N5C)c3o2)cc1` (stereo not shown), the melting point was 160 to 162 °C.
In turn, `O=C(NC1CN2CCC1CC2)c1cccc2nc(-c3ccc(Cl)cc3)oc12` (stereo not shown) yielded a melting point of 181 to 183 °C.
Same read-out and setting: the value for `CN1C2CCCC1CC(NC(=O)c1cccc3nc(-c4ccc(Cl)cc4)oc13)C2` (stereo not shown) was 193 to 196 °C; that for `CN1CCC(NC(=O)c2cccc3oc(-c4ccccc4)nc23)CC1` was 126 to 128 °C.
The same measure, in the same setting: the value for `CN1C2CCCC1CC(NC(=O)c1cccc3oc(-c4ccccc4)nc13)C2` (stereo not shown) was 182 to 185 °C; that for `CN1C2CCC1CC(NC(=O)c1cccc3oc(-c4ccccc4)nc13)C2` (stereo not shown) was 149 to 151 °C.
In turn, `O=C(NC1CCNCC1)c1cccc2oc(-c3ccccc3)nc12` yielded a melting point of 99 to 102 °C.
The compound `O=C(NC1CN2CCC1CC2)c1cccc2oc(-c3ccccc3)nc12` (stereo not shown) came in with a melting point of 77 to 80 °C.
